Measured values: patent US8026222B2, “Methods of use of glycomimetics with replacements for hexoses and n-acetyl hexosamines” (GlycoMimetics, Inc., priority 2007, dated 2011)

Test system: human umbilical vein endothelial cells (HUVECS)
Assay: neutrophil rolling on endothelial cell monolayers under flow conditions (rolling index)
Type: cell-based
Conditions: HUVEC monolayers incubated in glycated serum protein for 4 hours, perfused with human neutrophils (FIG. 18, FIG. 19)
Method: Monolayers of human umbilical vein endothelial cells (HUVECS) were incubated in glycated serum proteins (FIG. 18, glycated albumin, Gly-HSA or FIG. 19, glycated hemoglobin, Gly-Hb) for 4 hours. Monolayers were then inserted into a flow chamber and the chamber was perfused with human neutrophils (10^6 cell/ml) at a flow rate corresponding to a wall shear stress of 0.9 dynes/cm^2. Digital images were acquired and analyzed to determine the rolling index (RI) which is a measure of the degree of neutrophil rolling on the endothelial cell monolayer.

Substance: glycated hemoglobin: glycated serum protein used to stimulate endothelial cells
- increase in neutrophil rolling (rolling index): ~2.8 fold
